According to ChEMBL document CHEMBL1201862, “PubChem BioAssay data set” (2004):
Calls of active or inactive are those of the source.

How the values were obtained:
[1] = biological target: Photoreceptor-specific nuclear receptor (Homo sapiens, UniProt Q9Y5X4); format: functional;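 also: potency for compounds that break the NR2E3 corepressor complex and count as activators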
[2] = biological target: Peroxisome proliferator-activated receptor gamma/Nuclear receptor corepressor 2 (Homo sapiens, UniProt P37231+Q9Y618); format: functional
[3] = biological target: Peroxisome proliferator-activated receptor gamma/Nuclear receptor coactivator 3 (Homo sapiens, UniProt P37231); test: TR-FRET dose response biochemical High Throughput Screening assay for agonists of the steroid receptor coactivator 3 (SRC-3) recruitment by the peroxisome proliferator-activated receptor gamma (PPAR gamma): non-selective agonists. [Related pubchem assays: 1301 (Confirmation screen.), 1048 (Primary screen.)]; format: functional
[4] = biological target: Peroxisome proliferator-activated receptor gamma/Nuclear receptor coactivator 2 (Homo sapiens, UniProt P37231); test: (§1) TR-FRET dose response biochemical High Throughput Screening assay for agonists of the steroid receptor coactivator 2 (SRC-2) recruitment by the peroxisome proliferator-activated receptor gamma (PPAR gamma): non-selective agonists. [Related pubchem assays: 1297, 1032 ]; format: functional
[5] = biological target: Peroxisome proliferator-activated receptor gamma/Nuclear receptor coactivator 1 (Homo sapiens, UniProt P37231); test: as §1, with “1 (SRC-1)” for “2 (SRC-2)”, “assays (depositor defined):AID1300, AID1808, AID504735, AID631]” for “assays: 1297, 1032 ]”; format: protein assay
[6] = biological target: T1, Alkaline phosphatase, tissue-nonspecific isozyme (Homo sapiens, UniProt P05186)
T1 sequence (P05186 whole entry): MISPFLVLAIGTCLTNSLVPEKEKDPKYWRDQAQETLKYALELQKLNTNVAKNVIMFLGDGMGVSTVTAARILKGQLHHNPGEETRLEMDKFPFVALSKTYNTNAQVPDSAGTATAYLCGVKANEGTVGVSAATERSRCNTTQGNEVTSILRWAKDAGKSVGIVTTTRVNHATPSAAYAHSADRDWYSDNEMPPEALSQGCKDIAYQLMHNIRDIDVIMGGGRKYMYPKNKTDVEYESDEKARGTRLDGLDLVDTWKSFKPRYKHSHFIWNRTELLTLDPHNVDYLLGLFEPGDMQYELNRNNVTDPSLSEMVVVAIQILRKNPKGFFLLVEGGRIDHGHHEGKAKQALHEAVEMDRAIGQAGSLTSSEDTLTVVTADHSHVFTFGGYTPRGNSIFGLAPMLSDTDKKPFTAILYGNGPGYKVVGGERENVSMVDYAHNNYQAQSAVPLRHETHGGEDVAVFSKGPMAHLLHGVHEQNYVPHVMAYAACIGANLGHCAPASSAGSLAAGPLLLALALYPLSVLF

[7] = biological target: T2, Heat shock factor protein 1 (Mus musculus, UniProt P38532); test: HSF1 potentiators in luciferase reporter cells, confirmation, cell-based, NIH3T3, luminescence, dose retest (AID 435004); format: functional;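 also: stress induced by proteasome inhibitor MG132 added 30 min after compound; luciferase reporter driven by HSF1 response element in NIH3T3 cells; actives raise luminescence as potentiators of the MG132 stress response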
T2 sequence (P38532 whole entry): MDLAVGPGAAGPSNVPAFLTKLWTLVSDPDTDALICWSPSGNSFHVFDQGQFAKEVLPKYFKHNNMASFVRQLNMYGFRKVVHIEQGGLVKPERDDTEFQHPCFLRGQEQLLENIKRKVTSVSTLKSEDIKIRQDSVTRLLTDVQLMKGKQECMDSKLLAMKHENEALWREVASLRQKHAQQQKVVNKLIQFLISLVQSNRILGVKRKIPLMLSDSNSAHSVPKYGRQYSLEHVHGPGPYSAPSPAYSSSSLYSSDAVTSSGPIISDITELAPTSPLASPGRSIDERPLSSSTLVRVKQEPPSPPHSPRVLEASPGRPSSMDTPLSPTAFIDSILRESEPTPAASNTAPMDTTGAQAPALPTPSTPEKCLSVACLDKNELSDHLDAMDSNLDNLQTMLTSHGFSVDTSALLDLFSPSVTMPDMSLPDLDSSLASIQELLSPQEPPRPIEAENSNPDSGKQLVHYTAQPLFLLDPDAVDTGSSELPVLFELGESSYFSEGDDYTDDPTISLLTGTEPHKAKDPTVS

[8] = biological target: T3, Streptokinase A (Streptococcus pyogenes serotype M1, UniProt P10520); test: S. pyogenes streptokinase expression inhibitors, potency, dose response, plasminogen activation absorbance, OD405 (AID 1914); format: functional, Streptococcus pyogenes M1 GAS;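 also: secreted streptokinase activity via plasminogen activation per viability signal from cell pellet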
T3 sequence (P10520 whole entry): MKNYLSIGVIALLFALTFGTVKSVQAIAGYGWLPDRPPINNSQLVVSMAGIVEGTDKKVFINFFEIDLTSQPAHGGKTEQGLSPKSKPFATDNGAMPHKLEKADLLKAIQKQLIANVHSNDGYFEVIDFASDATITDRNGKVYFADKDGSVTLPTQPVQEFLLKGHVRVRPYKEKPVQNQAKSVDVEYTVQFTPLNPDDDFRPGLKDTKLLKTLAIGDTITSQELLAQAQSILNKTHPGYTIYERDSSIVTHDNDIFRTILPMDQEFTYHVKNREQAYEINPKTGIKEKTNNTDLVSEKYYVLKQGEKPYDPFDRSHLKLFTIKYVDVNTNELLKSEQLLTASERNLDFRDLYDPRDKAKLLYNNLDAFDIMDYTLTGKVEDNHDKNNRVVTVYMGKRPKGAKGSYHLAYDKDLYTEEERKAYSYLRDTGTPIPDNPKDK

[9] = biological target: Potassium voltage-gated channel subfamily KQT member 2 (Rattus norvegicus, UniProt O88943, W236L); test: KCNQ2 channel potentiators, dose response, mechanism study for KCNQ2 potentiator project, cell-based, automated electrophysiology (AID 2603); format: functional
[10] = biological target: T4, Zinc finger protein mex-5 (Caenorhabditis elegans, UniProt Q9XUB2); test: MEX-5/TCR-2 RNA interaction inhibitors, dose response, biochemical, C. elegans, fluorescence polarization (AID 1960)
T4 sequence (Q9XUB2 whole entry): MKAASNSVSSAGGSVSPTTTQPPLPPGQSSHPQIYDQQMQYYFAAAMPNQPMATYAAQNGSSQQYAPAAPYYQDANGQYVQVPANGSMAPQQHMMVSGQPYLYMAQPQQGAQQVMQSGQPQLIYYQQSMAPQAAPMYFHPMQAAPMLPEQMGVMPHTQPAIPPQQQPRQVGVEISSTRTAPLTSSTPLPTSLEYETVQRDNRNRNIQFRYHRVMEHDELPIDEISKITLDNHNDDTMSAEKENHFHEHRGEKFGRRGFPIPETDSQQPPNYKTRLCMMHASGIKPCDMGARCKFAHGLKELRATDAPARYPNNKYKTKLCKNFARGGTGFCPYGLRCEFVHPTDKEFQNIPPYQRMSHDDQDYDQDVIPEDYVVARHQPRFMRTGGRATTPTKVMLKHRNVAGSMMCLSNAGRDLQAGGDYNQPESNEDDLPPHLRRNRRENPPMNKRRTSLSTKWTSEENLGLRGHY

[11] = biological target: Female germline-specific tumor suppressor gld-1 (Caenorhabditis elegans, UniProt Q17339); test: inhibitors of GLD-1 binding to TGE RNA, dose response, biochemical, fluorescence polarization, C. elegans (AID 2802);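 also: fluorescence polarization of labeled TGE RNA bound by purified gld-1 protein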
[12] = biological target: T5, Polyadenylate-binding protein 1 (Homo sapiens, UniProt P11940); test: PABP1 MLLE–PAM2 binding inhibitor potency, dose response, biochemical, fluorescence polarization, FITC-PAM2 peptide (AID 602259); format: functional; conditions: read-out: IC50_Mean
[13] = biological target: 14-3-3 protein gamma (Homo sapiens, UniProt P61981); test: modulators of 14-3-3 gamma client binding – dose response (AID 711); format: functional
[14] = biological target: T6, Protein skinhead-1 (Caenorhabditis elegans, UniProt P34707); format: functional
T6 sequence (P34707 whole entry): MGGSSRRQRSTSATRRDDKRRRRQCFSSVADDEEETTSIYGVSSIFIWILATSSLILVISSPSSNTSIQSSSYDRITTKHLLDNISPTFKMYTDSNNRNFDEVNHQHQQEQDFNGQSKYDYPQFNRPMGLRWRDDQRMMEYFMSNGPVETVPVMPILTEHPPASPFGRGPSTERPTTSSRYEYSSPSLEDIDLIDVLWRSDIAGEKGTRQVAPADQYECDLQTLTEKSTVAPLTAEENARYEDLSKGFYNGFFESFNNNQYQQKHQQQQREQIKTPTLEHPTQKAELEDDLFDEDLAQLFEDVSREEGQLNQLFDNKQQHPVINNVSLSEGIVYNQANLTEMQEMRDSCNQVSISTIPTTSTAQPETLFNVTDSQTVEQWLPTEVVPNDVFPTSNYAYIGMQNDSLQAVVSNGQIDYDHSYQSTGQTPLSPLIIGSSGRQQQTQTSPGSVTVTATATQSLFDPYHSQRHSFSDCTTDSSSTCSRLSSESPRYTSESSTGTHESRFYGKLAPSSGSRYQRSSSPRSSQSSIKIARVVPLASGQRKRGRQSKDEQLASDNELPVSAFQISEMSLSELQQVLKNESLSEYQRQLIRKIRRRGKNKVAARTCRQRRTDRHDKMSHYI

[15] = biological target: Protein Rev (Human immunodeficiency virus type 1 group M subtype B (isolate HXB2)(HIV-1), UniProt P04618); test: inhibitors of Rev binding to RRE RNA, dose response, biochemical, fluorescence polarization, HIV-1 (AID 434976); set-up: species or system Human immunodeficiency virus 1
[16] = biological target: T5, Polyadenylate-binding protein 1; test: PABP1 MLLE–PAM2 interaction inhibitors, dose response, miRNA deadenylation inhibitor project, biochemical, fluorescence polarization, Cy5-PAM2 peptide, secondary (AID 602260); format: functional; conditions: read-out: IC50_Mean
[17] = biological target: T7, RNA-binding protein pos-1 (Caenorhabditis elegans, UniProt G5EF15); test: inhibitors of POS-1/mex-3 RNA binding, dose response, biochemical, fluorescence polarization (AID 1964);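 also: purified POS-1 fused to maltose binding protein made in E. coli; potency of compounds blocking POS-1 binding to fluorescent RNA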
T7 sequence (G5EF15 whole entry): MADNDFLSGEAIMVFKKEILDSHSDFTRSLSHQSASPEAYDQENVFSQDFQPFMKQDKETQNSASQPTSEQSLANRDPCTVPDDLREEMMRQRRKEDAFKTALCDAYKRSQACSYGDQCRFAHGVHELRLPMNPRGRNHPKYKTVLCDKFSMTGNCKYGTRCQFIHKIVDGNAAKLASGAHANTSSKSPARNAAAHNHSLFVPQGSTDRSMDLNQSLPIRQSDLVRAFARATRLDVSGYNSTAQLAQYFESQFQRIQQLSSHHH

[18] = biological target: T8, Hexokinase HKDC1 (Homo sapiens, UniProt Q2TB90); test: HKDC1 hexokinase inhibitors, dose response, biochemical, W721R variant (AID 504729); format: functional
T8 sequence (Q2TB90 whole entry): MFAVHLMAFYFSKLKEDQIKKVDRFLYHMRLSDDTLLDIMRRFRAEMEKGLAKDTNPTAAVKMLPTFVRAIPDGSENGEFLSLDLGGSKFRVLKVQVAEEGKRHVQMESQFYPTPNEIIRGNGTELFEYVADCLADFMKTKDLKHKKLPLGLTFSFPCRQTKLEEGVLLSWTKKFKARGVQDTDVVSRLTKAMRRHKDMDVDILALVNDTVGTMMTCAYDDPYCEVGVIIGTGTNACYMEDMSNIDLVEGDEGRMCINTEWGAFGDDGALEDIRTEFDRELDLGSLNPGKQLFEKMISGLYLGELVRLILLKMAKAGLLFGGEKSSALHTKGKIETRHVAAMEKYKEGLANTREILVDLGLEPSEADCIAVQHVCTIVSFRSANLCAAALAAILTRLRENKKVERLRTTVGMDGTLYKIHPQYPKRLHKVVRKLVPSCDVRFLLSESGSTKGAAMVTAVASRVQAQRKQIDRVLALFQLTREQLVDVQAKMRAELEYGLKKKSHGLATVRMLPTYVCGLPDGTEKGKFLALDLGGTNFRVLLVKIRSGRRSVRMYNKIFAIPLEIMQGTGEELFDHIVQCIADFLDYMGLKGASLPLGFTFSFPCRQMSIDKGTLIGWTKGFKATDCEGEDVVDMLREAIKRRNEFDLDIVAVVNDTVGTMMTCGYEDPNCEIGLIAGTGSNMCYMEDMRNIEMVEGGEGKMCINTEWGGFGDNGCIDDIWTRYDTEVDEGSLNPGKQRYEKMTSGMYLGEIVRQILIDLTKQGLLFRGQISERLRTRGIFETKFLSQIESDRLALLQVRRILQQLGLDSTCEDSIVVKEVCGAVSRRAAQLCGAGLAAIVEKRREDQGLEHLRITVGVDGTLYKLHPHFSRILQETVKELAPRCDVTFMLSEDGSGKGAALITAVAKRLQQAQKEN

[19] = inhibitors of SNCA 5'UTR-driven reporter translation, confirmation, H4 neuroglioma cells, luminescence (AID 1988); format: functional, cell-based
[20] = inhibitors of firefly luciferase expression or activity, dose response, H4 neuroglioma cells, luminescence (AID 1990); format: functional, cell-based
[21] = Luminescence Cell-Based Dose Response HTS to Identify Inhibitors of 5'UTR Stem-Loop Driven Prion Protein mRNA Translation in H4 Neuroglioblastoma Cells. [Related pubchem assays: 1827 (Project Summary), 1813 (Primary HTS)]; format: functional

Peroxisome proliferator-activated receptor gamma/Nuclear receptor corepressor 2, sequence (P37231 whole entry): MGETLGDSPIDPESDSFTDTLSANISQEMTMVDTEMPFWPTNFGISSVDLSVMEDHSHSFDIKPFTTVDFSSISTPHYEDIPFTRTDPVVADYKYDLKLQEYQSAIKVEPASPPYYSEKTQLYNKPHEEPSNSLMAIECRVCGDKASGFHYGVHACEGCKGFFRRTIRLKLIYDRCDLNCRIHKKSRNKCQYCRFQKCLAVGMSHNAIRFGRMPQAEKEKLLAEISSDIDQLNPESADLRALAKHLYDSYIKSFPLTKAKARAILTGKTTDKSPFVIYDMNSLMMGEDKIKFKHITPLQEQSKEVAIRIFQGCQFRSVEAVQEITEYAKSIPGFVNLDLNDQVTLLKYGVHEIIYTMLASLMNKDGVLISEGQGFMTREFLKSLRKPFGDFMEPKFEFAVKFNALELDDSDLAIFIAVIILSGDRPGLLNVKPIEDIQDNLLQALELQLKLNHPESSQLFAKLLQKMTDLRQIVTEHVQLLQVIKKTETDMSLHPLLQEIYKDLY
Peroxisome proliferator-activated receptor gamma/Nuclear receptor corepressor 2, sequence (Q9Y618 whole entry): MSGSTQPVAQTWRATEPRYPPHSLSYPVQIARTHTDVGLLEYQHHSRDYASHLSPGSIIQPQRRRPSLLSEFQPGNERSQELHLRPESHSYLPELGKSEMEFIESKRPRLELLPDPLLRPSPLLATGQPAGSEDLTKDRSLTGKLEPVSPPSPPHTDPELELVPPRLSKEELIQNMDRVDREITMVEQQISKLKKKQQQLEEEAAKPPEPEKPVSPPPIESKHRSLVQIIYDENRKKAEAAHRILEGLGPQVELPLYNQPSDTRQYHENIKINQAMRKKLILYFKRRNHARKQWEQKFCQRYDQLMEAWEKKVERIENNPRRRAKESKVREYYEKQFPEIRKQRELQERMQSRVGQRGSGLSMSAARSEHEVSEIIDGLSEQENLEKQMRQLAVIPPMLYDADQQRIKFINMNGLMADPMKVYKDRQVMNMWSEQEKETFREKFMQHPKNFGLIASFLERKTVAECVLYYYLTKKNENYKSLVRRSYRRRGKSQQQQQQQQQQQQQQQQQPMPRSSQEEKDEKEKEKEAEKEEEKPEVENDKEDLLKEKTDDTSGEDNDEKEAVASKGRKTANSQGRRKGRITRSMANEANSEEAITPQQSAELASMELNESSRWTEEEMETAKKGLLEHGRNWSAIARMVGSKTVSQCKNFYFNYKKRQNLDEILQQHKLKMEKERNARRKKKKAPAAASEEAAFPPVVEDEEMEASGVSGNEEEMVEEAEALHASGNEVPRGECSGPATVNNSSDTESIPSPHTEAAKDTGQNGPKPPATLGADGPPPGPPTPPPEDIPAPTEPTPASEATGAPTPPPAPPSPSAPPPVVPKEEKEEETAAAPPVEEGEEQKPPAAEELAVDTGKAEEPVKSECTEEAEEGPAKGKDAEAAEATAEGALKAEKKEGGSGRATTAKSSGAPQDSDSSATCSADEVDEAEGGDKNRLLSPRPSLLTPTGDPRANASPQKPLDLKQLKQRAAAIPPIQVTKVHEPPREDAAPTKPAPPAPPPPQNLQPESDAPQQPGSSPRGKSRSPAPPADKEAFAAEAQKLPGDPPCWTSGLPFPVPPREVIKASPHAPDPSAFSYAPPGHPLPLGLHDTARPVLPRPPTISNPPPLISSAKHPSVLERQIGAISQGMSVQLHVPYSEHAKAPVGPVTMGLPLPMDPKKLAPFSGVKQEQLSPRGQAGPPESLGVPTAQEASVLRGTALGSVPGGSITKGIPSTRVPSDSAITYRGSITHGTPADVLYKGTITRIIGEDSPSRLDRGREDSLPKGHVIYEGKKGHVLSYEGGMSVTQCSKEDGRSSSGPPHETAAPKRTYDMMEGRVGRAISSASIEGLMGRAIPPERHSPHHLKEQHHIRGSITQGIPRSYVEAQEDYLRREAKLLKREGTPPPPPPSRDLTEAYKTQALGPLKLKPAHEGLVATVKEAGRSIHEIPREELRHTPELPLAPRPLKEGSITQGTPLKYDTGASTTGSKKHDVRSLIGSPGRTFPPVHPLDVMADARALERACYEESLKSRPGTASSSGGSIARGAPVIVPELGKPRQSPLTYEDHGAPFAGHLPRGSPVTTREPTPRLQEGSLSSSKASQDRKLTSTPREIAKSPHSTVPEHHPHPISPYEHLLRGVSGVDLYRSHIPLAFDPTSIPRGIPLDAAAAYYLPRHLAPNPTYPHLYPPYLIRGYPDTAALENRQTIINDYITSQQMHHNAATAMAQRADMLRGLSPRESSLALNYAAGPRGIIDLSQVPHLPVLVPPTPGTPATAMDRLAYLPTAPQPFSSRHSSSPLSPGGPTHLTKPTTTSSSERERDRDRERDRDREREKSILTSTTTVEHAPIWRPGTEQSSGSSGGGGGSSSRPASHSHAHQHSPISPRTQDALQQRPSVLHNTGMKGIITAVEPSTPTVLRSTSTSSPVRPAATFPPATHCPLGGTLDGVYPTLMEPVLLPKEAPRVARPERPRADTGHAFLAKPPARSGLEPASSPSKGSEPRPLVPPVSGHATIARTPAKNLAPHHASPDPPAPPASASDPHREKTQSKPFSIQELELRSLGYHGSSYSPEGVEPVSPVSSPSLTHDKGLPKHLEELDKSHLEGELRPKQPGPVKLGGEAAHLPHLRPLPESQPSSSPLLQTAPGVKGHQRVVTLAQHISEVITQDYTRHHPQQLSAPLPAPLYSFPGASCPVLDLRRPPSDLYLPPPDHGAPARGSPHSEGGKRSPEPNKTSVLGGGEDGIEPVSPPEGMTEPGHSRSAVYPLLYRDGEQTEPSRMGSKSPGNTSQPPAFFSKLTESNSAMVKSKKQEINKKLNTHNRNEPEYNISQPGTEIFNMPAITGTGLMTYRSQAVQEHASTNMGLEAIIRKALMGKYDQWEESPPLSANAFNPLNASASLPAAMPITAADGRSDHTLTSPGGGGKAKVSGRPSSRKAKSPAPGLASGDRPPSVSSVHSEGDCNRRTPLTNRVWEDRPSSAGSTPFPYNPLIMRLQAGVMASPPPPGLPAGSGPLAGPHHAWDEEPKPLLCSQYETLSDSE
T5 sequence (P11940 whole entry): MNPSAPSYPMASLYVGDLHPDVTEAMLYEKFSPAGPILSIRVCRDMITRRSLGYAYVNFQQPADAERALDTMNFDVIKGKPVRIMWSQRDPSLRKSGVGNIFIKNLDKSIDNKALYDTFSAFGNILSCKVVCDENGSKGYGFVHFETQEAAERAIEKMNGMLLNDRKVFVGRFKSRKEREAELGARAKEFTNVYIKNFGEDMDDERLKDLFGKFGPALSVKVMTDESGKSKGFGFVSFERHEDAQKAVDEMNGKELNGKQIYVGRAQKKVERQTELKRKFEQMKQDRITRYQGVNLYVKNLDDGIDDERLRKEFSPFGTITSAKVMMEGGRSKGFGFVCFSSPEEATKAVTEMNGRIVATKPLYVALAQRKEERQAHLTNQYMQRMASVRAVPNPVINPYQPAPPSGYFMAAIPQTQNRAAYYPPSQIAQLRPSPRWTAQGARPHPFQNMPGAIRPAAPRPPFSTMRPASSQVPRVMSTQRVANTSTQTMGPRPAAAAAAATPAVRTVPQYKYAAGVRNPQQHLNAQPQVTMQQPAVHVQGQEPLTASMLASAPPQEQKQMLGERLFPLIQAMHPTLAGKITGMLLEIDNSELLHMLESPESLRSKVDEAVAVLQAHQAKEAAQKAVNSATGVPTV
Photoreceptor-specific nuclear receptor, sequence (Q9Y5X4 whole entry): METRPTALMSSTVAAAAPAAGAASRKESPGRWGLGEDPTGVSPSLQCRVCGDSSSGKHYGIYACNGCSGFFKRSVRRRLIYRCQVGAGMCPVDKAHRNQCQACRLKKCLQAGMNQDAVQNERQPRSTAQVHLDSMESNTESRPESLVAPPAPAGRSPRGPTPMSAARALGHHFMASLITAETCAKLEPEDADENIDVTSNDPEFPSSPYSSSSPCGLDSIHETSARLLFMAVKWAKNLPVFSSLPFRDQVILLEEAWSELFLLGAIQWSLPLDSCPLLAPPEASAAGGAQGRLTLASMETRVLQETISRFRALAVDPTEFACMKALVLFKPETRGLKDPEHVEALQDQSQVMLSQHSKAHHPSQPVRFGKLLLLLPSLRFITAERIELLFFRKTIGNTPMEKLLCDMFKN
Potassium voltage-gated channel subfamily KQT member 2, sequence (O88943 whole entry W236L): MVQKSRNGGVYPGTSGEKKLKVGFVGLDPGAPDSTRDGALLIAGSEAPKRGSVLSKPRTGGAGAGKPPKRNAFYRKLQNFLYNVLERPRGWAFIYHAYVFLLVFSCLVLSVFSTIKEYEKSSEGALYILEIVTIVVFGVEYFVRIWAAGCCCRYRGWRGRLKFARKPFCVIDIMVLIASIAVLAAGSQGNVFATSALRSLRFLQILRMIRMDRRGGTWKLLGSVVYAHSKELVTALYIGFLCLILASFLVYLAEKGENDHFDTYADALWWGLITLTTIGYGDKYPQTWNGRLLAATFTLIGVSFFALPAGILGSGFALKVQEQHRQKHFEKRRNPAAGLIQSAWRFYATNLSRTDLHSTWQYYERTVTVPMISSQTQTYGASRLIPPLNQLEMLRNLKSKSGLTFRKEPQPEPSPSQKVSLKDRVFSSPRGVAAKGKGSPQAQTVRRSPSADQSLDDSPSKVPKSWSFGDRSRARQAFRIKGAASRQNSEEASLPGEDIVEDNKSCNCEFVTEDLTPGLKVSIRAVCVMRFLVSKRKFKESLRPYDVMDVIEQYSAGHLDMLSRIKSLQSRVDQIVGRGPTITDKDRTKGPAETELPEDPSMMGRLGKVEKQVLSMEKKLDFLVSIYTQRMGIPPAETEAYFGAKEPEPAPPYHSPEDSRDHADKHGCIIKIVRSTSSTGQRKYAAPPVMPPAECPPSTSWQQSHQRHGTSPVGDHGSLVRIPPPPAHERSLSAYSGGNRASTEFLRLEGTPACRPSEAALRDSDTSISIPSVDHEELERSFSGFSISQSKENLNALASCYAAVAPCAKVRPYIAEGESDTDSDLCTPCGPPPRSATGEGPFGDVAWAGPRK
Protein Rev, sequence (P04618 whole entry): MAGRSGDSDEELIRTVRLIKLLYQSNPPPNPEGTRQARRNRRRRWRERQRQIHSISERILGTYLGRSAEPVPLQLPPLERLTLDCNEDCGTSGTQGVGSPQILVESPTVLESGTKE

O=C(CSc1ncnc2c1oc1ccccc12)c1cccs1
IC50 [1]: > 39.8 µM (not active)
IC50 [2]: 15.3 µM (not active)
EC50 [3]: > 79.4 µM (not active)
EC50 [4]: > 8.82 µM (not active)
EC50 [5]: > 26.5 µM (inactive)

COc1ccc(NC(=O)CSc2nc3ccccc3c3nc4ccccc4n23)cc1
EC50 [6]: > 100 µM (not active)

S=c1[nH]c(SCc2ccccc2)nc2ccccc12
IC50 [1]: > 39.8 µM (not active)
EC50 [7]: 227 µM (active)
IC50 [2]: 2.48 µM (active)
EC50 [8]: > 150 µM (not active)

Oc1c(Cl)cc(Cl)cc1/C=N/c1nccs1
EC50 [9]: 11.6 µM (active)

C#CCn1/c(=N/C(=O)CSC(C)=O)sc2cc(F)ccc21
EC50 [9]: 2.97 µM (active)

COc1ccc(-c2nc(C[S+]([O-])CC(=O)NCc3ccccn3)c(C)o2)cc1 (stereo not given)
EC50 [10]: 30.5 µM (active)
IC50 [11]: 5 µM (active)
IC50 [12]: 29.4 µM (inactive)
IC50 [13]: 10.7 µM (active)
IC50 [14]: > 100 µM (inactive)
IC50 [15]: 19.4 µM (not active)
IC50 [16]: > 66 µM (inactive)
EC50 [17]: 55.4 µM (active)

O=C(CSc1n[nH]c(-c2cccnc2)n1)Nc1ccc([N+](=O)[O-])cc1Br
IC50 [18]: 5.92 µM (active)

O=C(NCCc1ccccc1)c1cnn2c(C(F)F)cc(C3CC3)nc12
EC50 [19]: > 120 µM (not active)
EC50 [20]: > 120 µM (not active)
EC50 [21]: > 120 µM (not active)
IC50 [18]: 5.5 µM (active)
